Assay results from a melting point compilation (Tetko et al.; mined from patent text by program, amines drawn as free bases though some values may be those of a salt).

Work on `CC1(C)C(=O)N(c2ccc(C#N)c(C(F)(F)F)c2)C(=O)N1CCCCOCc1ccccc1` yielded a melting point of 75 to 76 °C. For `CCC(CC)Nc1nc(Cc2cc(OC)c(OC)c(OC)c2)nc2sc(C#N)c(C)c12`, the melting point was 127 to 129 °C. Work on `NS(=O)(=O)c1cnc(-c2cccs2)s1` yielded a melting point of 134 to 136 °C. With `CNCc1ccc2oc(-c3ccccc3C#N)c(Br)c2c1` the melting point was 114 °C. Work on `CCCc1ncc(/C=C2\C(=O)N(CC(=O)OC)c3cccc(C)c32)n1Cc1ccc(C(=O)OC)cc1` yielded a melting point of 228 to 230 °C. Molecule `Cc1ccc(C)n1CCN1CCCC1=O` has a melting point of 66 to 68 °C. With `O=C1CCN(Cc2ccc3ccccc3n2)CC1C(c1ccc(F)cc1)c1ccc(F)cc1` (centres undefined) the melting point was 188 to 189 °C. Work on `Cc1cc(C)cc(NC(=O)CN2CCN(c3ncccc3C#N)CC2)c1` yielded a melting point of 139 to 140 °C. Work on `Cc1c(C)c2c(c(C)c1OCc1ccccc1)CCC(C)(CN1CCN(CCOc3ccc(C=C4SC(=O)NC4=O)cc3)CC1)O2` (racemic) yielded a melting point of 192 to 194 °C. Work on `CCCCn1nnnc1-c1c(O)ccc(-c2cccc(C(=O)O)c2)c1O` yielded a melting point of 261 to 264 °C. For `Cn1nnnc1SCCCCCCCCSc1nnnn1C`, the melting point was 52 to 54 °C. For `O=[N+]([O-])c1ccc(C#Cc2ccccc2)c(-c2cc([N+](=O)[O-])ccc2C#Cc2ccccc2)c1`, the melting point was 216 to 218 °C. Molecule `COC(=O)c1ccc(OCC2CC(=O)N(c3ccc(C)cc3)C2)cc1` (centres undefined) has a melting point of 110 to 112 °C. For `COc1ccc(C)cc1NC(=O)Nc1ccc(N2CCN(C(=O)Nc3cc(OCCO)ccc3C)CC2)cc1`, the melting point was 121 to 124 °C. For `CC(C)(C=C=CC(=O)O)c1ccc(Cl)cc1`, the melting point was 64 to 67 °C. With `Cc1ccnc2c1C(=NNC(=N)N)CC(c1cc(Cl)sc1Cl)C2` (centres undefined) the melting point was 250 to 251 °C. For `CC(=O)OC1C=C(Br)C(=O)CO1` (centres undefined), the melting point was 78 to 80 °C. In the case of `O=[N+]([O-])c1ccc2[nH]cc(CCCI)c2c1`, the melting point is reported as 95 to 98 °C. Molecule `Cc1cc(C2=C(c3cc(C)sc3C)CCC=C2)c(C)s1` has a melting point of 55 to 57 °C. Molecule `COc1cc(OC)c(C(=O)CC(=O)c2cc(OC)c(OC)c(OC)c2)cc1OC` has a melting point of 154 to 156 °C. With `COC(=O)C1(C)Oc2ccc(Cl)cc2C(C)(c2ccccc2)O1` (centres undefined) the melting point was 134 °C. For `O=C(O)Cc1cc(Br)c(S(=O)(=O)c2ccc(O)c(C3CCCC3)c2)c(Br)c1`, the melting point was 171 to 174 °C. `CCC(=O)OCOC(=O)C1=C(C)N(COC)C(C)=C(C(=O)O)[C@@H]1c1cccc([N+](=O)[O-])c1` showed a melting point of 54 to 56 °C. Work on `COc1ccc(S(=O)(=O)N2CCc3cccc(-c4ccc(C=CC(=O)NO)cc4)c32)cc1` yielded a melting point of 200 to 201 °C. With `CCOc1nn(-c2ccc(C(F)(F)F)cn2)cc1CCCOc1cc(CCC(=O)O)n(-c2ccccc2)n1` the melting point was 121 to 122 °C. `CC(C)(C)[N+]([O-])=Cc1cc(Cl)ccc1O` gave a melting point of 143 °C. `COc1ccc(C(=O)Nc2c(Cl)cncc2Cl)cc1OC1C=CCC1` (centres undefined) showed a melting point of 177 to 178 °C. `CC(OC(C)c1ccc(-c2ccc(Cl)cc2)cc1)C(=O)O` (centres undefined) gave a melting point of 144 to 146 °C. With `CCOC(=O)c1c(S(=O)Cc2nccn2C)nc2cc(OC)c(OC)cc2c1-c1ccc(OC)c(OC)c1` (centres undefined) the melting point was 151 to 152 °C. `O=[N+]([O-])c1ccc(O)c(-c2cccs2)c1` showed a melting point of 130 °C. `CCOP(=O)(OCC)c1ccc(/C=C/c2ccc3c(c2)C(C)(C)CCC3(C)C)cc1` gave a melting point of 83 to 84 °C. Molecule `O=c1cc(Oc2ccc([N+](=O)[O-])cc2)cc[nH]1` has a melting point of 227 to 228 °C. Molecule `O=C(C=Cc1cc(O)c(O)c([N+](=O)[O-])c1)c1ccc([N+](=O)[O-])cc1` has a melting point of 255 to 256 °C. `CCC(=O)N1Cc2c(-c3noc(C4CC4)n3)ncn2-c2ccccc21` gave a melting point of 175 to 176 °C. Work on `Cc1c(NC(=O)c2ccc(OCCCCF)cc2F)ccc2cc(CN3CCCC3)cnc12` yielded a melting point of 140 °C. For `COC(=O)C1=C(C)Nc2ccccc2SC1c1ccc(C)cc1` (centres undefined), the melting point was 148 to 150 °C. In the case of `COC(=O)C(OCc1csc(-c2ccc(F)cc2)n1)C(=O)c1ccccc1` (centres undefined), the melting point is reported as 86 to 89 °C. `COc1ccc2cc(Br)cc(C)c2n1` showed a melting point of 89 to 91 °C. With `CC1(C)Oc2ccc(C#N)cc2[C@@H](NC2=C(Cl)C(=O)CC2)[C@@H]1O` (relative stereo) the melting point was 288 to 289 °C. Work on `COc1ccccc1N1CCN(C(=O)[C@@H](Cc2ccncc2)NC(=O)OC(C)(C)C)CC1` yielded a melting point of 105 °C. Molecule `CNC(=O)N1CCN(C(=O)Cc2ccc(Cl)c(Cl)c2)C(CN2CCC(O)C2)C1` (centres undefined) has a melting point of 57 °C. `CN1C(=O)C2(COc3cc4c(cc32)OCCO4)c2c(OCc3ncccc3C(F)(F)F)cccc21` (centres undefined) showed a melting point of 157 to 159 °C. `O=C1CCCC(=O)C1C(=O)c1ccc(C(F)(F)F)c(N2CCSCC2)n1` showed a melting point of 106 °C. `O=C(OC(C(F)(F)F)C(F)(F)F)c1c2ccccc2nc2ccccc12` gave a melting point of 143 to 145 °C. Work on `CCOC(=O)/C=C/c1ccc(N2CCC3(CC2)OCCO3)cc1` yielded a melting point of 115 to 116 °C. `CCCCCCCCCCCCCCCCCCCCCCC(NC(C)=O)(C(=O)OCC)C(=O)OCC` showed a melting point of 79 to 80 °C. Molecule `Cc1ccc(-c2ncc(N(CCCCOCC(=O)O)C(C)C)nc2-c2ccc(C)cc2)cc1` has a melting point of 155 to 156 °C. With `COC(=O)c1ccccc1NC(=O)CC(C)=O` the melting point was 79 to 80 °C. Molecule `N#Cc1cc(N2CCN(CCCCCC(=O)N3Cc4ccccc4C3)CC2)cc(C(F)(F)F)c1` has a melting point of 128 °C. Work on `O=C(O)Cn1nnc(-c2ccc3c(c2)S(=O)(=O)c2ccccc2C3=O)n1` yielded a melting point of 194 to 195 °C. With `CSc1ccc(-c2cccc(-c3nc(C(C)C)[nH]c3-c3cccc(C)n3)c2)cc1` the melting point was 80 to 82 °C. `Cc1ccc(S(=O)(=O)n2cc(F)c(=O)[nH]c2=O)cc1` gave a melting point of 241 to 242 °C. `O=C(O)Cc1sc(Nc2ccccc2)nc1-c1ccc(Cl)cc1` gave a melting point of 256 to 257 °C. For `CCCCc1nc2cc(C(=O)OC)ccc2n1Cc1ccc(-c2ccccc2-c2nnn[nH]2)cc1`, the melting point was 134 to 136 °C. For `Nc1ccc(Cn2c(=O)c3c(-c4noc(C5CC5)n4)ncn3c3ccccc32)cc1`, the melting point was 246 to 248 °C. For `COc1ccc(-c2nnn(-c3ccc(C(F)(F)F)cc3Cl)c2CO)cc1`, the melting point was 131 to 132 °C. In the case of `NCC1Cc2cc(-c3ccccc3)cc(-c3ccc(F)cc3)c2O1` (centres undefined), the melting point is reported as greater than 250 °C. With `CN(C(=O)c1ccc(Cn2cnc3cnccc32)cc1)C1CCCCC1` the melting point was 121 to 123 °C. For `C1=CCC2=C(C1)CC1=C(CC=CC1)C2`, the melting point was 146 to 147 °C. `COc1ccc(COC(=O)c2ncn3c2[C@@H]2CCCN2C(=O)c2c(Cl)cccc2-3)cc1` showed a melting point of 185 to 186 °C. Work on `CC(c1ccc(Oc2ccccc2)cc1)N(O)C(N)=O` (centres undefined) yielded a melting point of 118 to 119 °C. Molecule `C=CC(=O)N1CC[C@H]2[C@H]1[C@@H](CCC)C(=O)N2S(C)(=O)=O` (relative stereo) has a melting point of 177 to 181 °C. For `Cc1ccc(S(=O)(=O)NC(=O)Nc2ccc(Cl)cc2)cc1`, the melting point was 174 to 176 °C. `CC(=O)Nc1ccc(OC(C)(C)c2nc3ccccc3s2)cc1` showed a melting point of 149 to 150 °C. `COc1cccc(-n2c(-c3cc(-c4ccc(S(C)(=O)=O)cc4)c(N4CCOCC4)s3)nc3ccccc3c2=O)c1` gave a melting point of 203 to 205 °C. For `O=C(O)c1cc2cccc(OCC3CO3)c2o1` (centres undefined), the melting point was 117 to 119 °C. Molecule `CCCCCCC1c2cc(CC#N)ccc2-c2ccc(CC#N)cc21` has a melting point of 130 to 131 °C. `COc1nc(-c2ccc(F)cc2)nc(-c2ccccn2)n1` gave a melting point greater than 270 °C. For `CCOc1nc(F)cc2nc(=S)[nH]n12`, the melting point was 78 to 82 °C. `COc1ccc(N(S(=O)(=O)c2ccc(C)cc2)S(=O)(=O)c2ccc(C)cc2)c([N+](=O)[O-])c1` gave a melting point of 180 to 182 °C. Molecule `Cc1cc(SCN(O)CSc2cc(C)c(O)c(C(C)(C)C)c2)cc(C(C)(C)C)c1O` has a melting point of 115 to 118 °C. In the case of `COC(=O)CCC#Cc1cc(Cl)ccc1NS(=O)(=O)c1ccc(-c2ccccc2)cc1`, the melting point is reported as 93 °C. With `CCOc1ccc2c(c1)C(Cl)(c1ccccc1Cl)C(=O)N2` (centres undefined) the melting point was 128 to 132 °C. With `COc1nsc(NC(=O)[C@H](C)NC(=O)[C@H](Cc2ccccc2)NC(=O)OCc2ccccc2)n1` the melting point was 161 to 162 °C. With `O=C(O)[C@@H]1CC[C@H](c2ccccc2)N1C(=O)CCS` the melting point was 61 to 64 °C. In the case of `CN1CC(CCCCN2CCN(c3ccccc3O)CC2)OC1=O` (centres undefined), the melting point is reported as 106 to 110 °C. In the case of `Cc1ccc(C(=O)NCc2ccc(Br)cc2F)c(OCC(=O)O)c1`, the melting point is reported as 188 to 189 °C. In the case of `Nc1nc2c(c(N3CCNCC3)n1)SCCC2`, the melting point is reported as 176 to 178 °C. Molecule `O=c1c(O)c(-c2nnc(Cc3ccc(F)cc3)o2)oc2ccccc12` has a melting point of 221 °C. Molecule `CCOC(=NC#N)N[C@@H]1c2cc(C#N)ccc2OC(C)(C)[C@H]1O` (relative stereo) has a melting point of 193 to 196 °C. For `COc1ccc2oc(Cc3cccc(F)c3)c(CC#N)c2c1`, the melting point was 67 °C. With `O=c1[nH]c2cc(Cl)ccc2c(O)c1Sc1ccc(O)cc1` the melting point was greater than 300 °C. In the case of `O=C(O)c1ccc(-c2c(-c3ccccc3)[nH]c3ccccc23)cc1`, the melting point is reported as 252 to 253 °C. With `COCCNC(=O)c1ccc(-c2ccc3nnn(Cc4ccc5ncccc5c4)c3n2)cc1F` the melting point was 162 to 164 °C. In the case of `COC(=O)C12CCC(C(=O)O)(CC1)CC2`, the melting point is reported as 169 to 173 °C. For `COc1ccccc1S(=O)(=O)N(C)c1cccc2cc(C3=NCC(CC(N)=O)S3)[nH]c12` (centres undefined), the melting point was 227 to 228 °C. Molecule `Fc1cccc2c(Nc3ccncc3)noc12` has a melting point of 234 to 236 °C. Molecule `CSc1cn(C)c2ccsc2c1=O` has a melting point of 171 to 174 °C. Molecule `Nc1c(Br)cc(S(N)(=O)=O)cc1[N+](=O)[O-]` has a melting point of 216 to 218 °C. `OCCCc1ccc2ccccc2c1OCc1ccccc1` gave a melting point of 80 to 81 °C. For `O=C(NC1CC1)[C@@H]1CN(C(=O)OCc2ccccc2)C[C@H]1O`, the melting point was 132 to 133 °C. `CC(=O)Nc1ccc([N+](=O)[O-])s1` showed a melting point of 226 °C. In the case of `CCOC(=O)COc1cccc2cc(S(N)(=O)=O)sc12`, the melting point is reported as 168 °C. Molecule `CCCCCCCCCCc1cc(CCCCCCCCCC)cc(N(CC(=O)O)CC(=O)O)c1` has a melting point of 78 to 81 °C. `Cn1c(=O)oc2cc3c(cc21)OCC31C(=O)Nc2ccccc21` (centres undefined) showed a melting point greater than 250 °C. `CCOC(=O)C1=C(C)NC(C)=C(C(=O)OCC)C1c1cccc(Cl)c1` gave a melting point of 142 to 144 °C. `N#Cc1cnc2sc(-c3ccccc3)cc2c1NCCc1c[nH]cn1` gave a melting point greater than 245 °C. With `COc1ccc(CNc2nc(SC)ncc2C(=O)CP(=O)(OC)OC)cc1Cl` the melting point was 104 to 105 °C. `Cn1cc(OS(C)(=O)=O)c(=O)c2ccc(C(F)(F)F)cc21` showed a melting point of 218 °C.
